Laboratory results from ChEMBL document CHEMBL4033635, “Structure, synthesis and biological properties of the pentacyclic guanidinium alkaloids” (Bioorg Med Chem, 2017).
In brackets after ≈: the same amount, converted by molar mass.

Tests used:
[1] = Displacement of [125I]-alphaBgt from Torpedo californica muscle-type nAChR preincubated for 2 to 3 hrs followed by [125I]-alphaBgt addition addition measured after 5 mins; parameters: species or system Tetronarce californica
[2] = target: Neuronal acetylcholine receptor subunit alpha-7 (Homo sapiens, UniProt P36544); assay: Displacemet of [125I]-alphaBgt from human alpha7 nAChR expressed in rat GH4C1 cells preincubated for 2 to 3 hrs followed by [125I]-alphaBgt addition measured after 5 mins; format: cell-based
Chain of Neuronal acetylcholine receptor subunit alpha-7 (P36544 whole entry): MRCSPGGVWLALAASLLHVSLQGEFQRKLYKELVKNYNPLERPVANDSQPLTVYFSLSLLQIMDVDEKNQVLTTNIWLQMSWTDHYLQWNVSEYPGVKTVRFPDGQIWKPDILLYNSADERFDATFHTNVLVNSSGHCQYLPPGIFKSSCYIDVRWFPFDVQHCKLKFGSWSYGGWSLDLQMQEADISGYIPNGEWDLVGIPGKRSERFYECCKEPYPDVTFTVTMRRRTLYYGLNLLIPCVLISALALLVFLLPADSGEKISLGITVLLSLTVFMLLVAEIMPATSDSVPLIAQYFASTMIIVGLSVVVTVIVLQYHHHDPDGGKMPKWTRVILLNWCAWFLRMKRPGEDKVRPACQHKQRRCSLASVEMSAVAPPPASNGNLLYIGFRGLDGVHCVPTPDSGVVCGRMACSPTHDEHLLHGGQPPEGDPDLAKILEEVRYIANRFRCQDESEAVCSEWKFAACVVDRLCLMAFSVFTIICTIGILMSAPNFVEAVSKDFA

HeLa = assay: Antiproliferative activity against human HeLa cells; format: functional, cell-based
K562 [3] = assay: Growth inhibition of human K562 cells; format: functional
[4] = Inhibition of Ca2+-ATPase (unknown origin); parameters: species or system Homo sapiens
[5] = system: Human immunodeficiency virus 1; assay: Inhibition of HIV-1 reverse transcriptase at 10 uM
K562 [6] = assay: Cytotoxicity against human K562 cells; format: functional, cell-based
[7] = system: Human immunodeficiency virus 1; assay: Antiviral activity against HIV1 LAV in human PBM cells; format: functional, cell-based; settings: Human immunodeficiency virus 1, LAV
Staphylococcus aureus [8] = assay: Antibacterial activity against Staphylococcus aureus; format: functional
Staphylococcus aureus [9] = assay: Antibacterial activity against methicilin-resistant Staphylococcus aureus; format: functional
Plasmodium falciparum [10] = assay: Antiprotozoal activity against chloroquine-sensitive Plasmodium falciparum D6 after 48 hrs by lactate dehydrogenase assay; format: functional; settings: D6, 48 h
Plasmodium falciparum [11] = assay: Antiprotozoal activity against chloroquine-resistant Plasmodium falciparum W2 after 48 hrs by lactate dehydrogenase assay; format: functional; settings: W2, 48 h
[12] = Inhibition of pig cerebral cortex Na+/K+-ATPase; parameters: species or system Sus scrofa
[13] = Inhibition of rabbit sercoplasmic reticulum Ca+-ATPase; parameters: species or system Oryctolagus cuniculus
[14] = target: Eukaryotic translation initiation factor 5A-1 (Homo sapiens) (UniProt P63241); assay: Inhibition of eIF5A-1 (unknown origin) at 1 uM
Chain of Eukaryotic translation initiation factor 5A-1 (Homo sapiens) (P63241 whole entry): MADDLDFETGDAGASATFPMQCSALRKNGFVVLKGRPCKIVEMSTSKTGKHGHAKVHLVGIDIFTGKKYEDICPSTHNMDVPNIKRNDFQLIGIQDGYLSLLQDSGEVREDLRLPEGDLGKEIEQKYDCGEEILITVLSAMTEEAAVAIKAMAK

CC/C=C/[C@H]1CC[C@@]2(C[C@@H]3CC[C@@H]4[C@H](C(=O)OCCCCCCCCCCCCCCC(O)C(=O)NCCCN)[C@]5(CCC[C@@H](C)O5)N=C(N2)N34)O1 (stereo partly drawn)
Ki [1]: 8 to 310 µM
Ki [2]: 8 to 310 µM
IC50 (HeLa): 0.58 to 2.1 µM

CC[C@H]1C=CCC[C@@]2(C[C@@H]3CC[C@@H]4C(C(=O)OC/C=C/c5ccccc5)[C@]5(CCC[C@@H](C)O5)NC(=[N+]34)N2)O1 (stereo partly drawn)
GI50 (K562 [3]): < 1 µM

CCC[C@@H]1CCC[C@@]2(N=C3N[C@]4(CCC=C[C@H](CC)O4)C[C@@H]4CC[C@H]([C@@H]2C(=O)OCCCCCCCCCCCCCCCC(=O)N(CCCN)CCCCN)N34)O1
Ki [1]: 8 to 310 µM
Ki [2]: 8 to 310 µM

NCCCCN(CCCN)C(=O)CCCCCCCCCCCCCCC(=O)O[C@H]1C[C@H]2C[C@@]3(CCCCCO3)NC3=[N+]2[C@H]1C[C@]1(CCCCO1)N3
IC50 [4]: 3 µM

NCCCCN(CCCN)C(=O)CCCCCCCCCCCCCCCc1ccc2c(c1)[C@@H]1C[C@]3(CCCCO3)NC3=[N+]1[C@@H]2C[C@@]1(CCCCO1)N3.[Cl-]
inhibition [5]: 64%
IC50 (K562 [6]): 0.52 µg/mL

CC[C@H]1C=CCC[C@@]2(C[C@@H]3CC[C@@H]4[C@H](C(=O)OCCCCCCCCCCCCCCCC(=O)N(CCCN)CCCN)[C@]5(CCC[C@@H](C)O5)NC(=N2)N34)O1
EC50 [7]: 0.011 µM
EC90 [7]: 0.046 µM
MIC (Staphylococcus aureus [8]): 0.63 µg/mL (≈ 0.817 µM)
MIC (Staphylococcus aureus [9]): 0.63 µg/mL (≈ 0.817 µM)
IC50 (Plasmodium falciparum [10]): 0.11 to 0.12 µg/mL (≈ 0.143 to 0.156 µM)
IC50 (Plasmodium falciparum [11]): 0.11 to 0.12 µg/mL (≈ 0.143 to 0.156 µM)
IC50 [12]: 2 µM
IC50 [13]: 10 µM
inhibition [5]: 55 to 64%

NCCCCN(CCCN)C(=O)CCCCCCCCCCCCCCC(=O)O[C@H]1C[C@H]2C[C@@]3(CCCCO3)NC3=[N+]2[C@@H]1C[C@@]1(CCCCCO1)N3
IC50 [4]: 1 µM

CC[C@H]1C=CCC[C@@]2(C[C@@H]3CC[C@@H]4[C@H](C(=O)OCCCCCCCCCCCCCCCC(=O)N(CCCN)C[C@@H](O)CCN)[C@]5(CCC[C@@H](C)O5)NC(=N2)N34)O1
EC50 [7]: 0.04 µM
EC90 [7]: 0.12 µM

CC/C=C/[C@H]1CC[C@@]2(C[C@@H]3CC[C@@H]4[C@H](C(=O)OCCCCCCCCCCCCCCCC(=O)N(CCCN)CCCCN)[C@]5(CCC[C@@H](C)O5)N=C(N2)N34)O1
IC50 (HeLa): 0.58 to 2.1 µM

CC/C=C/[C@@H]1CC[C@]2(C[C@H]3CC[C@H]4[C@@H](C(=O)OC(CC)CCCCCCCCCCCCC[C@@H]5O[C@](O)(CCN)[C@H](O)N(CCCN)C5=O)[C@@]5(CCC[C@H](C)O5)NC(=[N+]34)N2)O1 (stereo partly drawn)
inhibition [14]: 50%
